Key:
[1] = test system: APP/PS1 mice; test: Alzheimer's animal model (APP/PS1 mice): immunofluorescence, Thioflavin S, Morris Water Maze; format: in vivo, mouse; conditions: 7-month-old APP/PS1 mice, 5 mg/kg N-acetyl sphingosine, 1 mg/kg FTY720 or 3 uM S1P daily for 4 weeks, intraperitoneal; for microglia (Iba1) in brain cortex vs APP/PS1 mice: FIG. 9a; for astrocytes (GFAP) in brain cortex vs APP/PS1 mice: FIG. 9b; for amount of Aβ / Aβ deposition (Thioflavin S) vs APP/PS1 mice: FIG. 9c; for memory and cognition (Morris Water Maze) vs APP/PS1 mice: FIG. 9d
Source text: It has been approved for mouse experiments by the Kyungpook National University Institutional Animal Care and Use Committee (IACUC). A transgenic mouse line overexpressing APPswe (hAPP695swe) or PS1 (presenilin-1M146V) based on C57BL/6 mice (Charles River, UK) was used. [Hereinafter, APP mouse: mouse overexpressing APPswe, PS1 mouse: mouse overexpressing presenilin-1M146V; GlaxoSmithKline]. As an Alzheimer's (AD) animal model, SphK1 tg (SphK1 gene overexpressing mouse) was crossed with APP mice and APP/PS1 mice to prepare APP/PS1/SphK1 tg mice. Niemanpick (NP-C) animal model, Balb/C (Orient, Wild type), NPC mutant mouse lacking NPC1 gene (Provided by Riken, Japan, NP-C mice; less weight than normal mice of the same age, and severe motor function loss from 4 to 6 weeks of age, limb tremors and seizures appear, and lifespan is approximately 9 to 10 weeks. Is) was used. As an animal model for amyotrophic lateral sclerosis (ALS), a transgenic mouse (FUS) line overexpressing RUS R521C based on C57BL/6 mice (Charles River, UK) was used.
After fixing the cerebral and hippocampus of the mouse, anti-20G10 (mouse, 1:1000) against amyloid-β (Aβ) 42 and anti-G30 (rabbit, 1:1000) against Aβ 40, anti-MAP2 (chicken, 1:2000), anti-Synaptophysin (mouse, 1:100), anti-Synapsin1 (rabbit, 1:500), anti-PSD95 (mouse, 1:100), anti-Iba-1 (rabbit, 1:500), Anti-GFAP (rabbit, 1:500) was cultured together. The site was analyzed using a laser scanning confocal microscope or Olympus BX51 microscope equipped with Fluoview SV1000 imaging software (Olympus FV1000, Japan). Metamorph software (Molecular Devices) was used to quantify the percentage of the area of the stained area relative to the area of the total tissue.
In order to confirm the potential effect on learning and memory, MWM (Morris water maze) and fear conditioning experiments were performed. MWM learned the task 4 times a day for 10 days for the mice, the platform was removed on the 11th day, and a probe trial was performed. On the first day of Fear conditioning, the mice were placed in a conditioning chamber, and sound stimulation (10 kHz, 70 dB) and electrical stimulation (0.3 mA, 1 s) were given. On the second day, memory for the space was checked without stimulation in the same conditioning chamber as on the first day, and on the third day, a memory test for fear was performed when only sound stimulation was given in another conditioning chamber. An open field test was performed to evaluate motor ability and immediate activity. In the open field test, the mice were placed in a square box for 10 minutes to measure the overall exercise power, time, and distance.
(§1) In order to measure the neuroinflammatory resolution factor, after culturing neurons from mouse cerebrum, CM was prepared by treatment with 10 nM N-acetyl sphingosine 1 phosphate (Toronto Research chemicals, C262710) and N-acetyl sphingosine (Sigma, 01912). For COX2 acetylation analysis, neurons were cultured from mouse cerebrum and then treated with 2 uCi [^14C]N-acetyl sphingosine (ARC, ARC1024). In addition, for in vivo experiments, 7-month-old APP/PS1 mice were injected with 5 mg/kg N-acetyl sphingosine (Sigma, 01912), 1 mg/kg FTY720 and 3 uM S1P daily for 4 weeks via intraperitoneal injection. 1 month-old NPC mice were injected with 5 mg/kg N-acetyl sphingosine (Sigma, 01912) and 2-month-old FUS mice with 30 mg/kg N-acetyl sphingosine (Sigma, 01912) daily for 4 weeks via subcutaneous injection.
The present inventors confirmed AD lesions by injecting N-acetyl sphingosine, one of the COX2 acetylating agents identified through the above experiment, into an APP/PS1 animal model. First, in order to determine the effect of N-acetyl sphingosine on the neuroinflammatory response by secreting neuroinflammatory resolution factor, changes in microglia and astrocytes were observed. […]

[2] = test system: APP/PS1 neurons; test: neuroinflammatory resolution factor (SPMs) secretion in APP/PS1 neurons after COX2 acetylating agent treatment; format: cell-based, mouse; conditions: 10 nM; FIG. 8b
Description: A commercially available ELISA kit (Biosource) was used, and the hemispheres of mice were homogenized and placed in a buffer containing 0.02M guanidine to prepare a sample for Aβ ELISA. In order to measure the neuroinflammatory resolution factor, conditioned media (CM) was prepared after culturing neurons from mouse cerebrum. Thereafter, according to the manufacturer's manual, ELISA for Aβ and SPM was performed.
as §1
First, in order to confirm whether the selected compounds promote the secretion of neuroinflammatory resolution factor in neurons, after treatment with N-acetyl sphingosine 1 phosphate or N-acetyl sphingosine in APP/PS1 neurons, the expression levels of neuroinflammatory resolution factor were confirmed. As a result, it was confirmed that the expression levels of LxA4 and RvE1 in neurons of APP/PS1 mice were recovered when treated with N-acetyl sphingosine 1 phosphate or N-acetyl sphingosine (FIG. 8b).

[3] = target: SphK1 (Homo sapiens, UniProt Q9NYA1); test: dissociation of acetyl-CoA from the acetyl-CoA:SphK1 complex, equilibrium dialysis; format: binding
[4] = substrate: CC(=O)SCCNC(=O)CCNC(=O)[C@H](O)C(C)(C)COP(=O)(O)OP(=O)(O)OC[C@H]1O[C@@H](n2cnc3c(N)ncnc32)[C@H](O)[C@@H]1OP(=O)(O)O; test: purified protein, by the assay type; conditions: other: in the presence of 10 mM sphingosine; [3H]acetyl-CoA; FIG. 1a

| Molecule | microglia (Iba1) in brain cortex vs APP/PS1 mice [1] | astrocytes (GFAP) in brain cortex vs APP/PS1 mice [1] | amount of Aβ / Aβ deposition (Thioflavin S) vs APP/PS1 mice [1] | memory and cognition (Morris Water Maze) vs APP/PS1 mice [1] | also measured |
| --- | --- | --- | --- | --- | --- |
| CCCCCCCCc1ccc(CCC(N)(CO)CO)cc1 [FTY720] | no difference | no difference | no effect | no effect | – |
| CCCCCCCCCCCCC/C=C/[C@@H](O)[C@H](COP(=O)(O)O)NC(C)=O [N-acetyl sphingosine 1 phosphate] | – | – | – | – | expression level of LxA4 in neurons of APP/PS1 mice [2]: recovered; expression level of RvE1 in neurons of APP/PS1 mice [2]: recovered |
| CCCCCCCCCCCCC/C=C/[C@@H](O)[C@@H](N)COP(=O)(O)O [S1P, sphingosine-1-phosphate] | no difference | no difference | no effect | no effect | – |
| CC(=O)SCCNC(=O)CCNC(=O)[C@H](O)C(C)(C)COP(=O)(O)OP(=O)(O)OC[C@H]1O[C@@H](n2cnc3c(N)ncnc32)[C@H](O)[C@@H]1OP(=O)(O)O [acetyl-CoA] | – | – | – | – | Kd [3]: 6.8 µM |
| SphK1 (Homo sapiens) (protein) MDPAGGPRGVLPRPCRVLVLLNPRGGKGKALQLFRSHVQPLLAEAEISFTLMLTERRNHARELVRSEELGRWDALVVMSGDGLMHEVVNGLMERPDWETAIQKPLCSLPAGSGNALAASLNHYAGYEQVTNEDLLTNCTLLLCRRLLSPMNLLSLHTASGLRLFSVLSLAWGFIADVDLESEKYRRLGEMRFTLGTFLRLAALRTYRGRLAYLPVGRVGSKTPASPVVVQQGPVDAHLVPLEEPVPSHWTVVPDEDFVLVLALLHSHLGSEMFAAPMGRCAAGVMHLFYVRAGVSRAMLLRLFLAMEKGRHMEYECPYLVYVPVVAFRLEPKDGKGVFAVDGELMVSEAVQGQVHPNYFWMVSGCVEPPPSWKPQQMPPPEEPL | – | – | – | – | Km [4]: 58.2 µM; kcat [4]: 0.0185 min⁻¹ |

Reference: patent publication US11899025B2, “Pharmaceutical composition for preventing or treating neurodegenerative diseases comprising COX2 acetylating agent as active ingredient” (KYUNGPOOK NATIONAL UNIVERSITY INDUSTRY-ACADEMIC COOPERATION …, priority 2018, dated 2024)
